Measured values as given in the supplement of paper PMC11208160.

Test: recombinant barcode read abundance after kanamycin selection (control-corrected) (log10(CPM+1)); higher = more efficient recombination; sequences stand for … in AGTGCAGAGAAAATCGGCCAGTTTTCTCTGCCTGCAGTCCGCATGCCGT…AGATTTATGCAGCGGACTGCCTTTCTCCCAAAGTGATAAACCGGACAGTATCATGGACCGGTTTTCCCGGTAATCCGTATTTGCAAGGTTGGTTTCACT; site = the 11-nt target
How it was run: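 Pooled E. coli screen pairing targets with IS621 bridge RNA target-binding loops. Each oligo (promoter, target, barcode, J23119-driven first 104 bridge RNA bases) was Gibson-cloned into a vector with the remaining 73 bp and T7-inducible recombinase, then co-electroporated with a donor plasmid. Two replicates each were plated on chloramphenicol/ampicillin LB agar (control) or chloramphenicol/ampicillin/kanamycin with 0.1 mM IPTG. Recombination efficiency is recombinant-junction barcode counts as CPM, averaged, control-corrected, reported as log10(CPM+1).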
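Further: IS621 recombinase and bridge RNA in Escherichia coli cells.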

Sequence | recombinant barcode read abundance (log10)
CAGAGCACTTGGGTTCTAACCTGTTGCCT (site GAGAGCACTAG) | 0.185
CAGAGCACTTGGGTTCTAACCTGTTGCCT (site TAGAGCACTAG) | 0.138
CAGAGTACTTGGGTTCTAACCTGTTGCCT (site CACAGTGCTAG) | 0.0547
CAGAGTACTTGGGTTCTAACCTGTTGCCT (site CAGAGTACTAG) | 0.216
CAGAGTCCTTGGGTTCTAACCTGTTGCTT (site CAGAGTCCTAA) | 1.59
CAGAGTCCTTGGGTTCTAACCTGTTGCTT (site CATAGTCCTAG) | 0.105
CAGCACCCTTGGGTTCTAACCTGTTGCGG (site CAGCACCCTCC) | 0.515
CAGCACCCTTGGGTTCTAACCTGTTGCGG (site CGGTACCCTCC) | 0.13
CAGCAGCCTTGGGTTCTAACCTGTTGCTT (site CAGCAGCCTAA) | 0.742
CAGCAGCCTTGGGTTCTAACCTGTTGCTT (site TCCGTTACTCG) | 0.0126
CAGCATCCTTGGGTTCTAACCTGTTGCAG (site ATCACGTCTAG) | 0.157
CAGCATCCTTGGGTTCTAACCTGTTGCAG (site CAGCATCCTCT) | 1.11
CAGCGGCCTTGGGTTCTAACCTGTTGCCT (site CAGAGGCCTAG) | 0.191
CAGCGGCCTTGGGTTCTAACCTGTTGCCT (site CAGCGGCCTAG) | 0.288
CAGCGGCCTTGGGTTCTAACCTGTTGCCT (site CAGGGGCCTAG) | 0.121
CAGCGGCCTTGGGTTCTAACCTGTTGCCT (site CAGTGGCCTAG) | 0.718
CAGGACCCTTGGGTTCTAACCTGTTGCCT (site CAAGACCCTAG) | 1.93
CAGGACCCTTGGGTTCTAACCTGTTGCCT (site CACGACCCTAG) | 0.437
CAGGACCCTTGGGTTCTAACCTGTTGCCT (site CAGGACCCTAG) | 2.18
CAGGACCCTTGGGTTCTAACCTGTTGCCT (site CATGACCCTAG) | 0.409
CAGGATGCTTGGGTTCTAACCTGTTGCCT (site CAAGATGCTAG) | 0.731
CAGGATGCTTGGGTTCTAACCTGTTGCCT (site CACGATGCTAG) | 0.0431

Sequence | recombinant barcode read abundance (log10)
CAGGATGCTTGGGTTCTAACCTGTTGCCT (site CAGGATGCTAG) | 1.35
CAGGATGCTTGGGTTCTAACCTGTTGCCT (site CATGATGCTAG) | 0.0284
CAGGCGTCTTGGGTTCTAACCTGTTGCAC (site CAGGCGTCTGT) | 1.12
CAGGCGTCTTGGGTTCTAACCTGTTGCAC (site GAGGGGTCTGT) | 0.142
CAGGGCCCTTGGGTTCTAACCTGTTGCCT (site AAGGGCCCTAG) | 0.329
CAGGGCCCTTGGGTTCTAACCTGTTGCCT (site CAGGGCCCTAG) | 2.14
CAGGGCCCTTGGGTTCTAACCTGTTGCCT (site GAGGGCCCTAG) | 0.527
CAGGGCCCTTGGGTTCTAACCTGTTGCCT (site TAGGGCCCTAG) | 0.397
CAGGGGACTTGGGTTCTAACCTGTTGCCA (site CAGGGGACTTG) | 1.04
CAGGGGACTTGGGTTCTAACCTGTTGCCA (site CCGTGGACTTG) | 0.217
CAGGGGCCTTGGGTTCTAACCTGTTGCCT (site CAGAGGCCTAG) | 0.0366
CAGGGGCCTTGGGTTCTAACCTGTTGCCT (site CAGCGGCCTAG) | 0.187
CAGGGGCCTTGGGTTCTAACCTGTTGCCT (site CAGGGGCCTAG) | 1.97
CAGGGGCCTTGGGTTCTAACCTGTTGCCT (site CAGTGGCCTAG) | 0.185
CAGGTACCTTGGGTTCTAACCTGTTGCAG (site CAGGTACCTAT) | 0.368
CAGGTACCTTGGGTTCTAACCTGTTGCAG (site CAGGTACCTCT) | 3.12
CAGGTGCCTTGGGTTCTAACCTGTTGCCT (site CAGGTGCCTAG) | 2.25
CAGGTGCCTTGGGTTCTAACCTGTTGCCT (site CCGGTGCCTAG) | 0.216
CAGGTGCCTTGGGTTCTAACCTGTTGCCT (site CGGGTGCCTAG) | 0.122
CAGGTGCCTTGGGTTCTAACCTGTTGCCT (site CTGGTGCCTAG) | 0.526
CAGTAGTCTTGGGTTCTAACCTGTTGCCT (site CAGTAATCTAG) | 0.579
CAGTAGTCTTGGGTTCTAACCTGTTGCCT (site CAGTACTCTAG) | 0.155

Sequence | recombinant barcode read abundance (log10)
CAGTAGTCTTGGGTTCTAACCTGTTGCCT (site CAGTAGTCTAG) | 1.07
CAGTAGTCTTGGGTTCTAACCTGTTGCCT (site CAGTATTCTAG) | 0.0913
CAGTATTCTTGGGTTCTAACCTGTTGCCT (site CAGTAATCTAG) | 0.0186
CAGTATTCTTGGGTTCTAACCTGTTGCCT (site CAGTACTCTAG) | 0.116
CAGTATTCTTGGGTTCTAACCTGTTGCCT (site CAGTAGTCTAG) | 0.0496
CAGTATTCTTGGGTTCTAACCTGTTGCCT (site CAGTATTCTAG) | 0.702
CAGTCTACTTGGGTTCTAACCTGTTGCGT (site CAGTCTACTAC) | 0.308
CAGTCTACTTGGGTTCTAACCTGTTGCGT (site TCAAGCCCTCT) | 0.292
CAGTCTGCTTGGGTTCTAACCTGTTGCCT (site CAATCTGCTAG) | 0.141
CAGTCTGCTTGGGTTCTAACCTGTTGCCT (site CACTCTGCTAG) | 0.0321
CAGTCTGCTTGGGTTCTAACCTGTTGCCT (site CAGTCTGCTAG) | 0.512
CAGTCTGCTTGGGTTCTAACCTGTTGCCT (site CATTCTGCTAG) | 0.182
CAGTTAGCTTGGGTTCTAACCTGTTGCCT (site CAGTTAGCTAG) | 0.642
CAGTTAGCTTGGGTTCTAACCTGTTGCCT (site CAGTTCGCTAG) | 0.182
CAGTTAGCTTGGGTTCTAACCTGTTGCCT (site CAGTTGGCTAG) | 0.0405
CAGTTAGCTTGGGTTCTAACCTGTTGCCT (site CAGTTTGCTAG) | 0.192
CAGTTGGCTTGGGTTCTAACCTGTTGCCT (site CAGTTAGCTAG) | 0.04
CAGTTGGCTTGGGTTCTAACCTGTTGCCT (site CAGTTCGCTAG) | 0.0864
CAGTTGGCTTGGGTTCTAACCTGTTGCCT (site CAGTTGGCTAG) | 1.01
CAGTTGGCTTGGGTTCTAACCTGTTGCCT (site CAGTTTGCTAG) | 0.232
CATAGACCTTGGGTTCTAACCTGTTGCAT (site CATAGACCTAT) | 1.82
CATAGACCTTGGGTTCTAACCTGTTGCAT (site CATAGCCCTAT) | 0.0625

Sequence | recombinant barcode read abundance (log10)
CATAGACCTTGGGTTCTAACCTGTTGCAT (site CATAGGCCTAT) | 0.0233
CATAGACCTTGGGTTCTAACCTGTTGCAT (site CATAGTCCTAT) | 0.0411
CATAGACCTTGGGTTCTAACCTGTTGCCT (site CATAGACCTAG) | 1.45
CATAGACCTTGGGTTCTAACCTGTTGCCT (site GATAGACCTAG) | 0.00901
CATAGATCTTGGGTTCTAACCTGTTGCTT (site CAAAGATCTAA) | 0.271
CATAGATCTTGGGTTCTAACCTGTTGCTT (site CACAGATCTAA) | 0.385
CATAGATCTTGGGTTCTAACCTGTTGCTT (site CAGAGATCTAA) | 0.0253
CATAGATCTTGGGTTCTAACCTGTTGCTT (site CATAGATCTAA) | 0.119
CATAGCCCTTGGGTTCTAACCTGTTGCAT (site CATAGACCTAT) | 0.176
CATAGCCCTTGGGTTCTAACCTGTTGCAT (site CATAGCCCTAT) | 1.11
CATAGCCCTTGGGTTCTAACCTGTTGCAT (site CATAGGCCTAT) | 0.117
CATAGCCCTTGGGTTCTAACCTGTTGCAT (site CATAGTCCTAT) | 0.0192
CATATCCCTTGGGTTCTAACCTGTTGCAT (site CATATCCCTAT) | 1.33
CATATCCCTTGGGTTCTAACCTGTTGCAT (site CTAATCCCTAT) | 0.03
CATATGACTTGGGTTCTAACCTGTTGCCT (site CATATGACTAG) | 1.2
CATATGACTTGGGTTCTAACCTGTTGCCT (site TCAGGAGCTTA) | 0.126
CATCATTCTTGGGTTCTAACCTGTTGCCT (site CATAATTCTAG) | 0.144
CATCATTCTTGGGTTCTAACCTGTTGCCT (site CATCATTCTAG) | 0.215
CATCATTCTTGGGTTCTAACCTGTTGCCT (site CATGATTCTAG) | 0.118
CATCATTCTTGGGTTCTAACCTGTTGCCT (site CATTATTCTAG) | 0
